From patent US6458781B1, “Substituted diarylalkyl amides as calcium channel antagonists” (priority 1998, dated 2002)
Structures can show the parent of a compound that is named as a salt.

How the values were obtained:
[1] = tested on: acetic acid-induced writhing in Swiss-Webster mice; assay: Anti-writhing test in mice (AW); type: in vivo; conditions: 10 mg/kg
From the text: Anti-Writhing Test in Mice (AW) Test Protocol
The purpose of this test is to evaluate drugs for analgesic-like activity. The AW test determines the effect of drugs on the response to a presumed painful stimulus in mice and is used as a preliminary in vivo procedure for the identification of potential analgesic agents.
Known analgesics with low, moderate, or high efficacy in man allow mice to tolerate intra-peritoneal administration of dilute acetic acid as evidenced by lesser incidence of writhing movements. The AW test measures the nociceptive response to acetic acid in mice and provides an objective, reliable, and quantitative estimate of efficacy and potency of potential analgesic compounds. This test serves as a preclinical predictor of analgesic activity.
Subjects are male Swiss-Webster mice (25-35 g).
Compounds are dissolved or suspended in physiological saline containing 2% Emulphor. Suspensions are subjected to ultrasonication for 3 minutes. Drug doses are expressed as the active moiety and are normally administered to mice (10, 30, and 100 mg/kg IP, SC, PO, or IM) in a volume of 10 mL/kg, 1 hour prior to testing; ICV doses (in μg/kg) are administered in a volume of 0.5 mL/kg, 5 minutes prior to testing. Animals dosed PO are fasted for 16 hours prior to dosing. Groups of eight mice are tested with each dose or the vehicle solution (control group).
Mice are treated with a dilute solution of acetic acid (0.6%, 10 mL/kg IP) which elicits writhing. In four successive trials, one pair of mice from each treatment group is placed in one of four adjacent clear plexiglas chambers (4 in×4 in×4 in). This allows the simultaneous observation of four pairs of mice representing all treatments and controls throughout the test. Writhing movements (abdominal contractions, stretching of the torso and hind legs, and concave arching of the back) are counted for 5 minutes commencing 7 minutes after acetic acid administration.
Drug effects on acetic acid-induced writhing are expressed as percent suppression of writhing relative to the vehicle-treated control group run in parallel with treated animals. The writhing tallies from pairs of animals are summed for each treatment and are divided by the summed writhing in the control group. The ED50s for suppression of writhing are determined by nonlinear regression analysis.

[2] = molecular target: T1, N-type calcium channels in IMR32 human neuroblastoma cells (Homo sapiens, UniProt Q00975); assay: FLPIMR assay (FLIPR, IMR32 cells); type: cell-based; conditions: nitrendipine present, read-out: FLP IMR IC50
T1 construct: expressing neuronal N-type calcium channels upon differentiation, was used for this assay; host or cells: IMR32 human neuroblastoma cells differentiated with dibutyryl cAMP and 5-bromo-2-deoxyuridine
Experimental: In Vitro Protocol: FLPIMR Assays
Calcium flux through voltage-sensitive calcium channels was assessed by time-resolved monitoring of the fluorescence of pre-loaded intracellular calcium-sensitive dyes using FLIPR, a fluorescent image plate reader (Molecular Devices Co.). The IMR32 human neuroblastoma cell line (ATCC, CRL-127), expressing neuronal N-type calcium channels upon differentiation, was used for this assay. IMR32 cells were grown in MEM media (Gibco BRL, 11095-080), supplemented with 10% fetal bovine serum (Gibco BRL, 26140-087), 1% antibiotic-antimycotic (Gibco BRL, 15240-096), 1% L-glutamine (Gibco BRL, 25030-032). Cells, grown to confluency, were differentiated for a period of 7-10 days, or longer, by adding 1 mM dibutyryl cAMP (Sigma D-0627) and 2.5 μM 5-bromo-2-deoxyuridine (Sigma B-9285) to the media. The differentiation media was fed continuously to cells until the cells were used in an experiment.
Differentiated cells were removed from T150 flasks by aspirating media and adding 10 mL harvesting solution consisting of 0.5 mM EDTA in DPBS without calcium or magnesium (Gibco BRL, 14190-144). Cells were then centrifuged at 1500 rpm (≈500 g) for 3 minutes in a Beckman tabletop centrifuge in order to remove the harvesting solution. Cells were resuspended in 10 mL of media containing 1 μM Oregon Green 488 Bapta-1 dye (Molecular Probes, O-6807) and placed in a 37° C. shaking waterbath for 1 hour. The dye-containing media was then diluted with 40 mL buffer (composition in mM: 1.25 CaCl2, 1.2 MgSO4, 11 glucose, 10 HEPES, 3.0 KCl, 137.0 NaCl, pH 7.4 with Tris base) and cells were centrifuged at 1500 rpm (≈500 g) for 3 minutes. Cells were resuspended and washed a second time with 40-50 mL incubation buffer. After centrifugation, cells were resuspended and 200 μL aliquots were plated on black-sided 96-well plates (Costar, 3603) for use in FLIPR. The plates of cells were centrifuged at 750 rpm (≈100 g) for 1.5 minutes to settle the cells to the bottom of the wells. Cells were given one final wash at setting BF1F in a Denley Cellwash (Labsystems, CW018B). The residual buffer volume was adjusted to 50 μL. A 5-minute drug-preincubation period at 35° C. was initiated when 50 μL of drug-containing buffer was pipetted into the cell plate with the 96-well pipettor integrated in the FLIPR apparatus. Nitrendipine, at a concentration of 4 μM, was included in this buffer, in addition to compounds of the present invention at various concentrations. […] Fluorescent counts were monitored at 20 s intervals for 360 s, beginning 60 s prior to the delivery of drug-containing buffer. Following drug addition, 100 μL aliquots of a high K^+, depolarizing stimulus (composition in mM: 1.25 CaCl2, 1.2 MgSO4, 11 glucose, 10 HEPES, 140.0 KCl, pH 7.4 with Tris base) were added to each well, and fluorescence was monitored at 1 s intervals for 120 s, beginning 10 s prior to the stimulus addition. CCD camera exposure time was 0.4 s; laser excitation was at 488 nm with a power of 0.2-0.5W; and a 510 to 560 nm bandpass interference filter preceded the camera.
Data was analyzed as a summation of fluorescent counts above basal during the stimulation period (an approximation of area under the curve), after normalizing the data with a spatial uniformity correction (for variations in laser illumination and cell density) and a negative control correction (zero calcium increase defined as the fluorescence reading in the presence of saturating pharmacologic block of the N-type calcium channel). […] This component was not included in any calculations.
Drug effects were expressed as percent inhibition of fluorescence from an average of 8 K^+-stimulated wells which were pre-treated in the drug incubation period with buffer only. Data was analyzed using FLIPR software and Microsoft Excel spreadsheet software.

[3] = tested on: Na+ channels in SCG neurons; assay: Sodium current in superior cervical ganglion neurons (whole-cell voltage clamp); type: cell-based, rat; conditions: at 10 μM
Experimental: (§1) Electrophysiological techniques were used to measure the effects of experimental compounds on voltage-gated Ca^2+, […] , and K^+ channels. […] Sodium and potassium channel currents were measured from acutely dissociated SCG neurons.
(§2) Dissociation of the neurons from the ganglia was accomplished using a 30 to 45 minute treatment in 0.25% trypsin, similar to methods outlined in Higgins, et al. (see Higgins D. et al. “Tissue culture of mammalian autonomic neurons.” In Banker G. and Goslin K. (Eds), Culturing Nerve Cells, Cambridge, Mass., MIT Press [1991]).
(§3) Ca^2+, Na^+, and K^+ channel currents in SCG neurons were measured using conventional single electrode whole-cell voltage-clamp techniques, outlined in Hamill et al., (see Hamill O. P. et al. “Improved patch-clamp techniques for high resolution current recordings from cells and cell-free membrane patches.”Pflugers Arch., 1981;391:85-100). For Ca^2+ channel experiments, the external bathing solution contained tetraethylammonium chloride (100 mM), choline chloride (52 mM), NaCl (15 mM), HEPES (10 mM), glucose (5.6 mM), CaCl2 (2 mM), and MgCl2 (0.8 mM), pH 7.35 with KOH; with the internal pipette solution containing cesium methane sulfonate (140 mM), EGTA (10 mM), and HEPES (10 mM), supplemented with 5 mM Mg^2+-ATP on the day of the experiment, pH 7.4 with CsOH. For Na^+ and K^+ channel experiments, the external bathing solution contained NaCl (150 mM), KCl (5 mM), MgCl2 (1.1 mM), CaCl2 (2.6 mM), Na-HEPES (10 mM), and glucose (10 mM), pH 7.4; with the internal pipette solution containing KCl (80 mM), K-gluconate (50 mM), HEPES (10 mM), and EGTA (10 mM), pH 7.4 with KOH. Experimental compounds were diluted into the external solution and applied to the soma of cells by local perfusion from large diameter (20-50 μm) glass micropipettes or from a U-tube applicator.
(§4) For Na^+ and K^+ channel currents, following the determination of the I/V relationship for each cell in control solution, currents were evoked from a holding potential between −65 and −55 mV by stepping every 10 sec to a test potential of either 0 mV for Na^+ or +50 mV for K^+ current for a duration of 35 msec. Peak inward current was measured for Na^+ and sustained current for K^+ channel currents. […] Test compounds were applied until steady-state block was achieved. Data were expressed as percent inhibition of control amplitudes for Na^+ and K^+ channel currents.

[4] = tested on: electroshock-induced tonic extensor seizures in CF-1 mice; assay: Maximal electroshock testing; type: in vivo; conditions: 10 mg/Kg iv, 15 min posttreatment; protected/tested
Experimental: Maximal Electroshock Testing
In this test, four representative compounds were tested for their anticonvulsant effects using the procedure described below.
Male CF-1 mice, 20 to 28 g, from Charles River Laboratories, Portage, Mich. were used in all experiments. Groups of 10 mice each were given various intravenous doses of test compound in aqueous solution with 10% Emulphan® Surfactant in a volume of 10 mL/kg of body weight. Electroshock was delivered by corneal electrodes with 60 Hz alternating current (50 mA root-mean-squared for 0.2 seconds) using a constant-current stimulator (Wahlquist Instruments, Salt Lake City, Utah). Untreated or saline-treated mice reliably had tonic extensor seizures with rearward extension of hindlimbs more than 3 seconds. These methods are similar to those published by Krall R. L.; Penry J. K.; White B. G.; and Kupferberg H. K. Antiepileptic Drug Development II. Anticonvulsant Drug Screening, Epilepsia, 1978; 19:409-428.

[5] = tested on: K+ channels in SCG neurons; assay: Potassium current in superior cervical ganglion neurons (whole-cell voltage clamp); type: cell-based, rat
Experimental: as §1, §2, §3, §4

[6] = molecular target: T2, N-type calcium channels in IMR-32 cells (Homo sapiens, UniProt Q00975); assay: N-type Ca2+ channel blocking potency in IMR-32 cells using Indo-1; type: cell-based; conditions: IMR-32 cells, 5 μM nitrendipine present; read-out: IMR32 IC50
T2 construct: host or cells: IMR-32 cells differentiated with dibutyryl cAMP and bromodeoxyuridine
Summary of the method: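 Differentiated IMR-32 cells loaded with Indo-1 AM were preincubated with compound and 5 μM nitrendipine (L-type block) for 10 min at 30° C in HEPES/Tris pH 7.4 HBSS with 0.5% BSA. Cells were depolarized with KCl/CaCl2, and the 400/490 nm emission ratio rise over basal was measured. IC50 came from a four-parameter logistic fit.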

[7] = molecular target: T3, N-type Ca2+ channels in cultured superior cervical ganglion (SCG) neurons (Rattus norvegicus, UniProt Q02294); assay: Calcium current in superior cervical ganglion neurons (whole-cell voltage clamp); type: cell-based
T3 construct: from tissue
Experimental: as §1, §2, §3
After obtaining a whole-cell recording, Ca^2+ channels were elicited by stepping to test potentials between −40 and +20 mV for 120 msec from the holding potential of −90 mV to determine if the amplitude of the current and clamp control were adequate for evaluation of drug effects. Ca^2+ channel currents were evoked by stepping from a holding potentials between −65 mV and −55 mV to a test potential of +20 mV for 150 msec every 40 seconds. The amplitude of the Ca^2+ channel currents were compared before and during drug application and drug effects expressed as percent inhibition of the amplitude of control currents.

T1 sequence (Q00975 whole entry): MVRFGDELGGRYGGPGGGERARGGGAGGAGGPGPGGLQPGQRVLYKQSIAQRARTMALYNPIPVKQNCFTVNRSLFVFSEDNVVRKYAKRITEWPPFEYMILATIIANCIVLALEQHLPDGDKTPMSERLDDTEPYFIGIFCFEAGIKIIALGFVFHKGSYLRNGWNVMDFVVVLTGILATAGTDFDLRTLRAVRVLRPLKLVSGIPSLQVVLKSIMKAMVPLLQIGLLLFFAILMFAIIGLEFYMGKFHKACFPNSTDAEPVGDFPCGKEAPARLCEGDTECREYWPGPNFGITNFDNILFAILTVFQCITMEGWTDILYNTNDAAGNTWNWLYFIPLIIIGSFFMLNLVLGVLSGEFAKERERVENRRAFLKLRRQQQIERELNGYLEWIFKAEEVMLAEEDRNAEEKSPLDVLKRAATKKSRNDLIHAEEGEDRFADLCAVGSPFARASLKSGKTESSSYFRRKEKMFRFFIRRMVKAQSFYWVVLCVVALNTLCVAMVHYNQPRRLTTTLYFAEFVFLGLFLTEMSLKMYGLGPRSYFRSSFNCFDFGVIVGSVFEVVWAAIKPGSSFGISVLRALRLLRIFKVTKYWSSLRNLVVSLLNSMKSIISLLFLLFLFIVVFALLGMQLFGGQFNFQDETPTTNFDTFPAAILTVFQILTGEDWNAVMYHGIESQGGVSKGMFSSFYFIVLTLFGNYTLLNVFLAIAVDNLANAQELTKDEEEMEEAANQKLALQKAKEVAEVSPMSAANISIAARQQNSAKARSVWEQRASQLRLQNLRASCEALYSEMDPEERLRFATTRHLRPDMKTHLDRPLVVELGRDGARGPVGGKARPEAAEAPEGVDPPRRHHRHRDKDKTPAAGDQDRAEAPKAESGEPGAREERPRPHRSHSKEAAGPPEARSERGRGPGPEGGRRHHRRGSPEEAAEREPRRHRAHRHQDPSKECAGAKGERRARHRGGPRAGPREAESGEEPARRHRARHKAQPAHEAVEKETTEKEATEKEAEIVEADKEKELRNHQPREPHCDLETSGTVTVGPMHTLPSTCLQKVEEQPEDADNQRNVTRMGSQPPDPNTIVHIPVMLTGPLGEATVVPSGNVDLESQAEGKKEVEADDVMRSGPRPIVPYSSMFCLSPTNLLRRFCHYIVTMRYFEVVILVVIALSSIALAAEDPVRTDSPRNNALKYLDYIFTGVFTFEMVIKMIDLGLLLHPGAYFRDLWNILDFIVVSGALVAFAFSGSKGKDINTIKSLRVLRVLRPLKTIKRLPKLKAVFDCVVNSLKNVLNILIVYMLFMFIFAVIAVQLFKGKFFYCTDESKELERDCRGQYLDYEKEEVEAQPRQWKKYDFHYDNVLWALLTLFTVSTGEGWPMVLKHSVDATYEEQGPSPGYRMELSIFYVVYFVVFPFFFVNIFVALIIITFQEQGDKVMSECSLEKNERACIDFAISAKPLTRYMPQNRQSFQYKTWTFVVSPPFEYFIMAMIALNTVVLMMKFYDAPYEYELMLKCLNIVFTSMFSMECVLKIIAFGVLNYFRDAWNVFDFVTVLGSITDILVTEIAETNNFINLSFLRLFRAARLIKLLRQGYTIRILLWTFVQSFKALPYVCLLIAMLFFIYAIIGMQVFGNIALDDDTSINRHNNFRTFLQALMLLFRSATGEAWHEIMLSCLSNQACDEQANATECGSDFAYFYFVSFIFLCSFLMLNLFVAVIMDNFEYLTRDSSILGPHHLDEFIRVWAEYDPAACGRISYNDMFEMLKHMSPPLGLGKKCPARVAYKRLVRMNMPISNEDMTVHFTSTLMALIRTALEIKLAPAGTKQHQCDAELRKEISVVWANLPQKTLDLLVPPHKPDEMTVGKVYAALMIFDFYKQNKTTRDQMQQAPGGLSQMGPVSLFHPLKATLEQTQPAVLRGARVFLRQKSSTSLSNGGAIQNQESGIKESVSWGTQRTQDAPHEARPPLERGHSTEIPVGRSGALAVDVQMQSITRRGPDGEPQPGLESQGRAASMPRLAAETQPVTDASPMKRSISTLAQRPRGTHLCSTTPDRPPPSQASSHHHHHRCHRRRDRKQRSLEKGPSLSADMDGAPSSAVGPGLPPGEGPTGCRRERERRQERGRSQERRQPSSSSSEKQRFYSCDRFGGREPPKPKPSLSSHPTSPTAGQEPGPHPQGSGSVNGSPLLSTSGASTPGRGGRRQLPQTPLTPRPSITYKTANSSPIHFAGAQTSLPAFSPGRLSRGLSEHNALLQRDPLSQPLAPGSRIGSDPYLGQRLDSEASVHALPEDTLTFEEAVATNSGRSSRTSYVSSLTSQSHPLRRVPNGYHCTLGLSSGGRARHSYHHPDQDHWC
T1 sequence (P54289 25-956 partner limits assumed): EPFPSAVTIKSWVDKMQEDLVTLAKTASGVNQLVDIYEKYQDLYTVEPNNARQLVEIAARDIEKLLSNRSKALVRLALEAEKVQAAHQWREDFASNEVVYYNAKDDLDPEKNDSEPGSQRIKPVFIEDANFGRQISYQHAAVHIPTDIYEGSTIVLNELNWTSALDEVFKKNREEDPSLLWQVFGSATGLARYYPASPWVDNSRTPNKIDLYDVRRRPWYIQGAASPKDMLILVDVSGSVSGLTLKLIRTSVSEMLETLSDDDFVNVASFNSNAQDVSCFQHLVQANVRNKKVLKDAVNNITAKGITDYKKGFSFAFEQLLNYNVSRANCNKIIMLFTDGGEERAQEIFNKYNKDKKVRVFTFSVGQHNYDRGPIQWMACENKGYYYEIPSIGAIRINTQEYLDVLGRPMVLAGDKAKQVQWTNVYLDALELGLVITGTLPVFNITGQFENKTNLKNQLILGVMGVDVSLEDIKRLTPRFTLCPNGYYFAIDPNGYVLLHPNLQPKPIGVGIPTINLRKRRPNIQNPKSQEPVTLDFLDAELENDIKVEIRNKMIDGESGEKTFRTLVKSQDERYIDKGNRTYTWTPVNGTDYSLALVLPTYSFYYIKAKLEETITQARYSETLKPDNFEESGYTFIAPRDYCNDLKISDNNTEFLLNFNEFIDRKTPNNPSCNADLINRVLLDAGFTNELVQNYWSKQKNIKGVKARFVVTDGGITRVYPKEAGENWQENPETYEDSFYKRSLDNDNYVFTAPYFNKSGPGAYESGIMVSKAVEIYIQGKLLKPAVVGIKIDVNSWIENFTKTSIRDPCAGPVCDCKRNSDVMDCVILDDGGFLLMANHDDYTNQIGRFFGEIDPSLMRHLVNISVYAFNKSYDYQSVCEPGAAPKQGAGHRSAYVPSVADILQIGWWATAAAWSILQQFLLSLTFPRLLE
T1 sequence (P54289 957-1103 partner limits assumed): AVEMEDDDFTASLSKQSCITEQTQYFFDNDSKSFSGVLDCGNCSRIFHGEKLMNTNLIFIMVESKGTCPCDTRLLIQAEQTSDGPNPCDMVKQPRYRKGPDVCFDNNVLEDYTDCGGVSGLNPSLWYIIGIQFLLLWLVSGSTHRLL
T1 sequence (Q02641 whole entry partner): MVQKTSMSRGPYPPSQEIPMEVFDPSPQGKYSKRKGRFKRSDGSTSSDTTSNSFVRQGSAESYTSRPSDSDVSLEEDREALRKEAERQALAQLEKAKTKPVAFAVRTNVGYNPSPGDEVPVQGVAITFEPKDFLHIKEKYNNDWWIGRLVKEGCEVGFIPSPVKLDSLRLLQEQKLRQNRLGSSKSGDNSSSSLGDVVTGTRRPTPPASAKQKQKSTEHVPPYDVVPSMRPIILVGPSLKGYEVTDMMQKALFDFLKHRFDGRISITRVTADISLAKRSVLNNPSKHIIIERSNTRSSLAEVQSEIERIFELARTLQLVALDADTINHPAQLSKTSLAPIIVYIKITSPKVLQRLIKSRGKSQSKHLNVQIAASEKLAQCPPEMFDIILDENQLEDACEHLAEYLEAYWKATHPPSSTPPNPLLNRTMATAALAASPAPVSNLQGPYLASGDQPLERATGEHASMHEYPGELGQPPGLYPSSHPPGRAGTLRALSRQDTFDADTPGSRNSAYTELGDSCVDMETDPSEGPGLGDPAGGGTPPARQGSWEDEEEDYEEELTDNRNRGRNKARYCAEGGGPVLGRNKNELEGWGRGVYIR
T2 sequence (Q00975 whole entry): as the sequence (Q00975 whole entry) above
T2 sequence (P54289 25-956 partner limits assumed): as the sequence (P54289 25-956 partner limits assumed) above
T2 sequence (P54289 957-1103 partner limits assumed): as the sequence (P54289 957-1103 partner limits assumed) above
T2 sequence (Q02641 whole entry partner): as the sequence (Q02641 whole entry partner) above

Compound | Anti-Writhing % Protection (dose) [1] [% @ 10 mg/kg] | IC50 [2] [nM] | further results
CC(C)CN(C)CC(=O)NCCCC(c1ccc(F)cc1)c1ccc(F)cc1 [Example 78, N-[4,4-Bis-(4-fluoro-phenyl)-butyl]-2-(isobutyl-methyl-amino)-acetamide] | 0 | 1600 | 
CC(C)=CCN(C)[C@@H](CC(C)C)C(=O)NCCCC(c1ccc(F)cc1)c1ccc(F)cc1 [Example 13, (S)-4-Methyl-2-[methyl-(3-methyl-but-2-enyl)-amino]-pentanoic acid [4,4-bis-(4-fluoro-phenyl)-butyl]-amide monohydrochloride] |  |  | SCG Na, % blockage at 10 μM [3]: 95% @ 10; Number of Mice Protected from Tonic Convulsions [4]: 3/5; SCG K, % blockage at 1 μM ([5]; at 1 μM): 10% @ 1; SCG K, % blockage at 10 μM ([5]; at 10 μM): 48% @ 10; IC50 [6]: 520 nM; inhibition at 1 µM ([7]; at 1 μM, read-out: SCG Ca, % blockage at 1 μM): 23%; inhibition at 10 µM ([7]; at 10 μM, read-out: SCG Ca, % blockage at 10 μM): 77%
(S)-N^1-[4,4-Bis-(4-fluoro-phenyl)-butyl]-4-N^2-dimethyl-pentane-1,2-diamine [Example 76] | 20.9 | 2200 | 
CN[C@H](C(=O)NCCCC(c1ccc(F)cc1)c1ccc(F)cc1)C(C)C [Example 73, (S)-3-Methyl-2-methylamino-butanoic acid [4,4-bis-(4-fluorophenyl)-butyl]-amide monohydrochloride] | 90.4 | 3900 | 
CN[C@@H](CNCCCC(c1ccc(F)cc1)c1ccc(F)cc1)CC(C)C [Example 77, (R)-N^1-[4,4-Bis-(4-fluoro-phenyl)-butyl]-4-N^2-dimethyl-pentane-1,2-diamine] | 43.4 | 2200 | 
CNCC(=O)NCCCC(c1ccc(F)cc1)c1ccc(F)cc1 [Example 74, N-[4,4-Bis-(4-fluoro-phenyl)-butyl]-2-methylamino-acetamide] |  | 2900 | 
CC(C)C[C@H](O)C(=O)NCCCC(c1ccc(F)cc1)c1ccc(F)cc1 [Example 72, (S)-2-Hydroxy-4-methyl-pentanoic acid [4,4-bis-(4-fluoro-phenyl)-butyl]-amide] |  | 1900 | 
CN[C@H](CC(C)C)C(=O)NCCCC(c1ccc(F)cc1)c1ccc(F)cc1 [Example 71, (R)-4-Methyl-2-methylamino-pentanoic acid [4,4-bis-(4-fluorophenyl)-butyl]-amide monohydrochloride] | 33.9 | 2500 | 
